Laboratory results taken from PubChem BioAssay (NCI).
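GI50 marks 50% less growth. TGI: concentration producing complete growth inhibition.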

Experiments:
Test in all cases: growth of human tumour cells (NCI), 384-well format
[1] = system: M14 melanoma
[2] = system: OVCAR-4 ovarian
[3] = system: SF-268 CNS
[4] = system: SNB-19 CNS
[5] = system: T-47D breast
[6] = system: NCI-H23 lung
[7] = system: HS 578T breast
[8] = system: SN12C renal
[9] = system: CCRF-CEM leukemia
[10] = system: NCI-H522 lung
[11] = system: ACHN renal
[12] = system: K-562 leukemia
[13] = system: OVCAR-5 ovarian
[14] = system: NCI-H226 lung
[15] = system: A498 renal
[16] = system: CAKI-1 renal
[17] = system: UO-31 renal
[18] = system: TK-10 renal
[19] = system: UACC-62 melanoma
[20] = system: MALME-3M melanoma
[21] = system: SK-OV-3 ovarian
[22] = system: KM12 colon
[23] = system: MOLT-4 leukemia
[24] = system: HL-60(TB) leukemia
[25] = system: RPMI-8226 leukemia
[26] = system: SK-MEL-28 melanoma
[27] = system: SNB-75 CNS
[28] = system: HOP-92 NSCLC
[29] = system: SF-539 CNS
[30] = system: BT-549 breast
[31] = system: SF-295 CNS
[32] = system: EKVX NSCLC
[33] = system: RXF 393 renal
[34] = system: HCC-2998 colon
[35] = system: SW-620 colon
[36] = system: MDA-MB-468 breast
[37] = system: HOP-62 NSCLC
[38] = system: MCF7 breast
[39] = system: HCT-15 colon
[40] = system: DU-145 prostate
[41] = system: MDA-MB-231 breast
[42] = system: SR leukemia
[43] = system: COLO 205 colon
[44] = system: OVCAR-8 ovarian
[45] = system: NCI/ADR-RES ovarian
[46] = system: IGROV1 ovarian
[47] = system: A549 NSCLC
[48] = system: MDA-MB-435 melanoma
[49] = system: LOX IMVI melanoma
[50] = system: PC-3 prostate
[51] = system: UACC-257 melanoma
[52] = system: 786-0 renal
[53] = system: SK-MEL-5 melanoma
[54] = system: OVCAR-3 ovarian
[55] = system: NCI-H460 NSCLC
[56] = system: HT29 colon
[57] = system: NCI-H322M lung

Question: Which results are given for CCOCC1(COCC)CCC(c2[nH]ncc2CN(C)CCNC)CC1?
Answer: GI50 [1]: 17.6 µM; TGI [1]: 44.7 µM; GI50 [2]: > 100 µM; TGI [2]: > 100 µM; GI50 [3]: > 100 µM; TGI [3]: > 100 µM; GI50 [4]: > 100 µM; TGI [4]: > 100 µM; GI50 [5]: 27.3 µM; TGI [5]: > 100 µM; GI50 [6]: > 100 µM; TGI [6]: > 100 µM; GI50 [7]: > 100 µM; TGI [7]: > 100 µM; GI50 [8]: 64.8 µM; TGI [8]: > 100 µM; GI50 [9]: 53.3 µM; TGI [9]: > 100 µM; GI50 [10]: 96.8 µM; TGI [10]: > 100 µM; GI50 [11]: 2.03 µM; TGI [11]: > 100 µM; GI50 [12]: 4.11 µM; TGI [12]: > 100 µM; GI50 [13]: 28.5 µM; TGI [13]: > 100 µM; GI50 [14]: > 100 µM; TGI [14]: > 100 µM; GI50 [15]: 5.94 µM; TGI [15]: > 100 µM; GI50 [16]: 3.69 µM; TGI [16]: > 100 µM; GI50 [17]: > 100 µM; TGI [17]: > 100 µM; GI50 [18]: 43.4 µM; TGI [18]: > 100 µM; GI50 [19]: 12.6 µM; TGI [19]: 33.3 µM; GI50 [20]: 8.61 µM; TGI [20]: 36.3 µM; GI50 [21]: 47.1 µM; TGI [21]: > 100 µM; GI50 [22]: > 100 µM; TGI [22]: > 100 µM; GI50 [23]: 20 µM; TGI [23]: > 100 µM; GI50 [24]: 0.123 µM; TGI [24]: 2.68 µM; GI50 [25]: 2.52 µM; TGI [25]: 57.4 µM; GI50 [26]: 11.3 µM; TGI [26]: 29.3 µM; GI50 [27]: > 100 µM; TGI [27]: > 100 µM; GI50 [28]: 35.2 µM; TGI [28]: > 100 µM; GI50 [29]: 90.4 µM; TGI [29]: > 100 µM; GI50 [30]: 32.7 µM; TGI [30]: > 100 µM; GI50 [31]: 6.65 µM; TGI [31]: > 100 µM; GI50 [32]: > 100 µM; TGI [32]: > 100 µM; GI50 [33]: > 100 µM; TGI [33]: > 100 µM; GI50 [34]: 16.3 µM; TGI [34]: 38.3 µM; GI50 [35]: > 100 µM; TGI [35]: > 100 µM; GI50 [36]: 1.81 µM; TGI [36]: 35.6 µM; GI50 [37]: 71 µM; TGI [37]: > 100 µM; GI50 [38]: 29.9 µM; TGI [38]: > 100 µM; GI50 [39]: 18.6 µM; TGI [39]: > 100 µM; GI50 [40]: > 100 µM; TGI [40]: > 100 µM; GI50 [41]: 42.5 µM; TGI [41]: > 100 µM; GI50 [42]: 0.386 µM; TGI [42]: 9.85 µM; GI50 [43]: 20.5 µM; TGI [43]: > 100 µM; GI50 [44]: > 100 µM; TGI [44]: > 100 µM; GI50 [45]: > 100 µM; TGI [45]: > 100 µM; GI50 [46]: 2.77 µM; TGI [46]: > 100 µM; GI50 [47]: 18.1 µM; TGI [47]: > 100 µM; GI50 [48]: 58.7 µM; TGI [48]: > 100 µM; GI50 [49]: 29.6 µM; TGI [49]: > 100 µM; GI50 [50]: > 100 µM; TGI [50]: > 100 µM; GI50 [51]: 14.8 µM; TGI [51]: 30.2 µM; GI50 [52]: 10.4 µM; TGI [52]: > 100 µM; GI50 [53]: 11.5 µM; TGI [53]: 34.5 µM; GI50 [54]: 1.75 µM; TGI [54]: > 100 µM; GI50 [55]: 8.56 µM; TGI [55]: > 100 µM; GI50 [56]: 10.7 µM; TGI [56]: 35.8 µM; GI50 [57]: > 100 µM; TGI [57]: > 100 µM
